Among the data in patent US12655142B2 (Merck Patent GmbH, priority 2019, dated 2026) are IC50 and efflux ratio values, retold here.

Series [1] has as its target T1, GIST430/654 cell line expressing mutated constitutively active cKIT receptor tyrosine kinase (Δ560-576 deletion and V654A point mutation) (Homo sapiens, UniProt P10721, DEL560-576/V654A).
T1 construct: endogenous in cells; host or cells: GIST430/654 cells
In words: Cellular cKIT autophosphorylation (phospho-Y307-cKIT, Luminex bead assay) in GIST430/654 cells. The settings on record: compounds 45 min, read-out: GIST 430/654 IC50. Type of series: cell-based. The gist of the method:
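Phospho-Y307 cKIT in lysates was measured on a Luminex bead assay, with total-cKIT capture overnight at 4 °C and phosphospecific plus PE secondary detection. Cells had 45 min exposure to a compound dilution series the day after plating: GIST430 (Δ560-576) or GIST430/654 (Δ560-576/V654A, grown with 100 nM imatinib). IC50 values are relative to 0.3% DMSO-treated cells.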

Series [2] in a line: Determination of Efflux-Ratio (ER) in Caco-2 cells. Conditions: human, Caco-2, pH 7.4. (Caco-2 monolayers are a common model of the intestinal barrier.)
Series [3] deals with T2, c-Kit(V654A) (Homo sapiens, UniProt P10721, V654A).
T2 construct: recombinant human c-Kit, amino acids 544-end containing the V654A mutation; GST (N)
As to the kind of experiment: c-Kit(V654A) assay (33P-ATP filter binding kinase assay). Type of series: biochemical. Conditions: recombinant human c-Kit aa 544-end V654A, ATP 200 μM. The method, boiled down: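 Radiometric filter-binding read-out: substrate 33P incorporation counted by scintillation after P30 filtermat washes in 75 mM phosphoric acid and methanol. Enzyme: N-GST recombinant human c-Kit aa 544-end carrying V654A.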

pIC50: −log10 of the molar value. A value given as a limit tells only on which side of the number the result lay.

T1 sequence (P10721 with tags, fused parts or gaps DEL560-576/V654A): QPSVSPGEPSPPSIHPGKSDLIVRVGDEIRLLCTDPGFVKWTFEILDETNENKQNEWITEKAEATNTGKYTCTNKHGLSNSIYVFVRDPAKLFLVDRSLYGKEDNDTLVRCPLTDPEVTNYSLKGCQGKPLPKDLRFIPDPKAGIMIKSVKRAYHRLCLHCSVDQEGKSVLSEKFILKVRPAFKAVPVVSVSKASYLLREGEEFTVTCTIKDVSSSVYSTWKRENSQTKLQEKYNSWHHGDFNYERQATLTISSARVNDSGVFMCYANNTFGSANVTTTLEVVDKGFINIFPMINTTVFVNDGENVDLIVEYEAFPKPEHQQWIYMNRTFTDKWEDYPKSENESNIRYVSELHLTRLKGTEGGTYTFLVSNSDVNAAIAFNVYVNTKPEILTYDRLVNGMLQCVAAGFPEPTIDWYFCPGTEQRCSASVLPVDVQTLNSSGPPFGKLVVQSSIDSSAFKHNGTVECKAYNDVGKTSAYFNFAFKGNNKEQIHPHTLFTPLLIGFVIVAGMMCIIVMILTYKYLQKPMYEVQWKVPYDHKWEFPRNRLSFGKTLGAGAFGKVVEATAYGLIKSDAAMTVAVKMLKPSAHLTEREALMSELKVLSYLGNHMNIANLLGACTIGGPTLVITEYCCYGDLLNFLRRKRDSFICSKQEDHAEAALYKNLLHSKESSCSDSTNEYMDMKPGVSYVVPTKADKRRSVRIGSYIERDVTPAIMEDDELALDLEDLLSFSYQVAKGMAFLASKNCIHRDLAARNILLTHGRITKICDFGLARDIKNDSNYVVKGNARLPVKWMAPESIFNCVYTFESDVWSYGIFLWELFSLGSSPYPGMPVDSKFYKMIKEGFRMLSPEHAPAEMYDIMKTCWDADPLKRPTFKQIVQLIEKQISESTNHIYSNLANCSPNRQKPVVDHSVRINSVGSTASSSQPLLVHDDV
T2 sequence (P10721 544-976 V654A): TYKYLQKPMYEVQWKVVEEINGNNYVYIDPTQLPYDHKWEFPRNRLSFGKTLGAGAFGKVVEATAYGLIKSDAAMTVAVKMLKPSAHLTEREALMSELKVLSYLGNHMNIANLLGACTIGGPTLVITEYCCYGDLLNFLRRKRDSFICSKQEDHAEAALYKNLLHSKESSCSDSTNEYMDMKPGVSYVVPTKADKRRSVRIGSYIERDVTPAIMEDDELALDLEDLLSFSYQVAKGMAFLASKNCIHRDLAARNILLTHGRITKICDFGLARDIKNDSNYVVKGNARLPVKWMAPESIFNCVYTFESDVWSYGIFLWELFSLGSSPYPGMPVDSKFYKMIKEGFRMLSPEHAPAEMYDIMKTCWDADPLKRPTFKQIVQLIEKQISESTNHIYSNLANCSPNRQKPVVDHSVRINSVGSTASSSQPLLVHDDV

The term efflux ratio denotes a quotient of directional permeabilities that is used to spot active efflux. Turning to `Cn1cc(-c2ccc(CNc3cc(-c4cnc5cc(OCCN6CCn7cnnc7C6)ccn45)ncn3)cc2)cn1` [A203, (6-{7-[2-(5,6-dihydro-8H-[1,2,4]triazolo[4,3-a]pyrazin-7-yl)-ethoxy]-imidazo[1,2-a]pyridin-3-yl}-pyrimidin-4-yl)-[4-(1-methyl-1H-pyrazol-4-yl)-benzyl]-amine], the results for the pIC50 in series [1] and in series [3] were 6.38 and 8.01, respectively. Moreover, the efflux ratio at 2 h, 1 μM in series [2] is over 50.

On to `CN1CC2(CN(CCOc3ccn4c(-c5cc(NCc6ccc(-c7cnn(C)c7)cc6)ncn5)cnc4c3)C2)OC1=O` [A248, 7-methyl-2-[2-(3-{6-[4-(1-methyl-1H-pyrazol-4-yl)-benzylamino]-pyrimidin-4-yl}-imidazo[1,2-a]pyridin-7-yloxy)-ethyl]-5-oxa-2,7-diaza-spiro[3.4]octan-6-one], for which the pIC50 in series [1] was 6.80; in series [3] it was 7.68. The efflux ratio at 2 h, 1 μM in series [2] is over 50.

Regarding `Cn1ncc(-c2ccc(CNc3cc(-c4cnc5cc(OCCCN6CCOCC6)ccn45)ncn3)cc2)n1` [A133], the values for the pIC50 in series [1] and in series [3] were 7.52 and 8.59, respectively. In addition, in series [2], the efflux ratio at 2 h, 1 μM is under 15.

For `Cn1cc(-c2ccc(CNc3cc(-c4cnc5cc(OCCN6CCC(C)(F)CC6)ccn45)ncn3)cc2)cn1` [A196, (6-{7-[2-(4-fluoro-4-methyl-piperidin-1-yl)-ethoxy]-imidazo[1,2-a]pyridin-3-yl}-pyrimidin-4-yl)-[4-(1-methyl-1H-pyrazol-4-yl)-benzyl]-amine], the pIC50 in series [1] was 6.85; in series [3] it was 7.85. Besides, in series [2], the efflux ratio at 2 h, 1 μM was under 15.

On to `COc1ccn2c(-c3cc(NCc4ccc(-c5cocn5)cc4)ncn3)cnc2c1` [A51, [6-(7-methoxy-imidazo[1,2-a]pyridin-3-yl)-pyrimidin-4-yl]-(4-oxazol-4-yl-benzyl)-amine], for which the values for the pIC50 in series [1] and in series [3] were 7.28 and 8.80, respectively. Moreover, the efflux ratio at 2 h, 1 μM in series [2] was under 15.

In the case of `CN(CC#N)CCOc1ccn2c(-c3cc(NCc4ccc(-c5cnn(C)c5)cc4)ncn3)cnc2c1` [A205, {methyl-[2-(3-{6-[4-(1-methyl-1H-pyrazol-4-yl)-benzylamino]-pyrimidin-4-yl}-imidazo[1,2-a]pyridin-7-yloxy)-ethyl]-amino}-acetonitrile], the pIC50 in series [1] is 6.96; in series [3] it was 8.00. The efflux ratio at 2 h, 1 μM in series [2] was under 15.

`COc1ccn2c(-c3cc(NCc4ccc(-c5cnn(C)c5)s4)ncn3)cnc2c1` [A36, 6-{7-methoxyimidazo[1,2-a]pyridin-3-yl}-N-{[5-(1-methyl-1H-pyrazol-4-yl)thiophen-2-yl]methyl}pyrimidin-4-amine]: the pIC50 in series [1] is 6.85; in series [3], 8.38. For the same molecule, the efflux ratio at 2 h, 1 μM in series [2] was under 15.

Consider `Cn1cc(-c2ccc(CNc3cc(-c4cnc5cc(OCC(C)(C)N)ccn45)ncn3)cc2)cn1` [A104, {6-[7-(2-amino-2-methyl-propoxy)-imidazo[1,2-a]pyridin-3-yl]-pyrimidin-4-yl}-[4-(1-methyl-1H-pyrazol-4-yl)-benzyl]-amine], for which the pIC50 in series [1] is 6.77; in series [3], 8.15. Further, the efflux ratio at 2 h, 1 μM in series [2] was 15 to 50.

In the case of `COCCOc1ccn2c(-c3cc(NCc4ccc(-c5cnn(C)n5)cc4)ncn3)cnc2c1` [A71, {6-[7-(2-methoxy-ethoxy)-imidazo[1,2-a]pyridin-3-yl]-pyrimidin-4-yl}-[4-(2-methyl-2H-[1,2,3]triazol-4-yl)-benzyl]-amine], the pIC50 is 7.35 in series [1] and 8.34 in series [3]. The efflux ratio at 2 h, 1 μM in series [2] was under 15.

As to `CN1CCN(CCOc2ccn3c(-c4cc(NCc5ccc(-c6cnn(C)c6)cc5)ncn4)cnc3c2)CCC1=O` [A219, 4-methyl-1-[2-(3-{6-[4-(1-methyl-1H-pyrazol-4-yl)-benzylamino]-pyrimidin-4-yl}-imidazo[1,2-a]pyridin-7-yloxy)-ethyl]-[1,4]diazepan-5-one], the results for the pIC50 in series [1] and in series [3] were 7.00 and 7.96, respectively. Further, the efflux ratio at 2 h, 1 μM in series [2] was in the range of 15 to 50.

In the case of `COc1ccn2c(-c3cc(NCc4ccc(-c5cnn(C)n5)cc4)ncn3)cnc2c1` [A32, [6-(7-methoxy-imidazo[1,2-a]pyridin-3-yl)-pyrimidin-4-yl]-[4-(2-methyl-2H-[1,2,3]triazol-4-yl)-benzyl]-amine], the pIC50 was 7.11 in series [1] and 8.36 in series [3]. The efflux ratio at 2 h, 1 μM in series [2] is under 15.

As to `Cn1cc(-c2ccc(CNc3cc(-c4cnc5cc(OCCN6CCOCC(F)(F)C6)ccn45)ncn3)cc2)cn1` [A200, (6-{7-[2-(6,6-difluoro-[1,4]oxazepan-4-yl)-ethoxy]-imidazo[1,2-a]pyridin-3-yl}-pyrimidin-4-yl)-[4-(1-methyl-1H-pyrazol-4-yl)-benzyl]-amine], the figures for the pIC50 in series [1] and in series [3] were 6.72 and 7.57, respectively. For the same molecule, the efflux ratio at 2 h, 1 μM in series [2] was under 15.

Consider `Cn1cc(-c2ccc(CNc3cc(-c4cnc5cc(OCCN6Cc7ccncc7C6)ccn45)ncn3)cc2)cn1` [A195, (6-{7-[2-(1,3-dihydro-pyrrolo[3,4-c]pyridin-2-yl)-ethoxy]-imidazo[1,2-a]pyridin-3-yl}-pyrimidin-4-yl)-[4-(1-methyl-1H-pyrazol-4-yl)-benzyl]-amine], for which the pIC50 in series [1] was 7.14; in series [3] it was 8.01. In series [2], the efflux ratio at 2 h, 1 μM was under 15.

Turning to `COc1ccn2c(-c3cc(OCc4ccc(-c5cnn(C)c5)cc4)ncn3)cnc2c1` [A158, 7-methoxy-3-{6-[4-(1-methyl-1H-pyrazol-4-yl)-benzyloxy]-pyrimidin-4-yl}-imidazo[1,2-a]pyridine], the pIC50 is 6.85 in series [1] and 7.89 in series [3]. The efflux ratio at 2 h, 1 μM in series [2] is under 15.

For `Cn1cc(-c2ccc(CNc3cc(-c4cnc5cc(OCCN6CCN(C7CC7)CC6)ccn45)ncn3)cc2)cn1` [A197, (6-{7-[2-(4-cyclopropyl-piperazin-1-yl)-ethoxy]-imidazo[1,2-a]pyridin-3-yl}-pyrimidin-4-yl)-[4-(1-methyl-1H-pyrazol-4-yl)-benzyl]-amine], the pIC50 in series [1] was 6.82; in series [3], 7.92. The efflux ratio at 2 h, 1 μM in series [2] was under 15.

Regarding `CN(CCOc1ccn2c(-c3cc(NCc4ccc(-c5cnn(C)c5)cc4)ncn3)cnc2c1)CC(F)(F)F` [A208, [4-(1-methyl-1H-pyrazol-4-yl)-benzyl]-[6-(7-{2-[methyl-(2,2,2-trifluoro-ethyl)-amino]-ethoxy}-imidazo[1,2-a]pyridin-3-yl)-pyrimidin-4-yl]-amine], the pIC50 in series [1] was 6.64; in series [3], 7.42. Besides, in series [2], the efflux ratio at 2 h, 1 μM is under 15.

Take `Cc1noc(C2CN(CCOc3ccn4c(-c5cc(NCc6ccc(-c7cnn(C)c7)cc6)ncn5)cnc4c3)C2)n1` [A213, [6-(7-{2-[3-(3-methyl-[1,2,4]oxadiazol-5-yl)-azetidin-1-yl]-ethoxy}-imidazo[1,2-a]pyridin-3-yl)-pyrimidin-4-yl]-[4-(1-methyl-1H-pyrazol-4-yl)-benzyl]-amine]: the values for the pIC50 in series [1] and in series [3] were 6.74 and 7.80, respectively. For the same molecule, in series [2], the efflux ratio at 2 h, 1 μM is under 15.

For the molecule `Cn1cc(-c2ccc(CNc3cc(-c4cnc5cc(N6CCC7(COC7)C6)ccn45)ncn3)cc2)cn1` [A247, [4-(1-methyl-1H-pyrazol-4-yl)-benzyl]-{6-[7-(2-oxa-6-aza-spiro[3.4]oct-6-yl)-imidazo[1,2-a]pyridin-3-yl]-pyrimidin-4-yl}-amine], the pIC50 in series [1] is 7.21; in series [3] it was 8.11. Moreover, the efflux ratio at 2 h, 1 μM in series [2] was under 15.

Consider `Cn1cc(-c2ccc(CNc3cc(-c4cnc5cc(OCCCN6CCN(C7CC7)CC6)ccn45)ncn3)cc2)cn1` [A243, (6-{7-[3-(4-cyclopropyl-piperazin-1-yl)-propoxy]-imidazo[1,2-a]pyridin-3-yl}-pyrimidin-4-yl)-[4-(1-methyl-1H-pyrazol-4-yl)-benzyl]-amine], for which the pIC50 in series [1] was 7.40; in series [3], 8.17. In addition, in series [2], the efflux ratio at 2 h, 1 μM was under 15.

As for `Cn1cc(-c2ccc(CNc3cc(-c4cnc5cc(OCCC6CCNC6)ccn45)ncn3)cc2)cn1` (stereo not drawn) [A175, [4-(1-methyl-1H-pyrazol-4-yl)-benzyl]-{6-[7-(2-pyrrolidin-3-yl-ethoxy)-imidazo[1,2-a]pyridin-3-yl]-pyrimidin-4-yl}-amine], the results for the pIC50 in series [1] and in series [3] were 6.32 and 8.01, respectively. In addition, the efflux ratio at 2 h, 1 μM in series [2] is over 50.

Take `Cn1cc(-c2ccc(CNc3cc(-c4cnc5cc(OCCCO)ccn45)ncn3)cc2)cn1` [A131, 3-(3-{6-[4-(1-methyl-1H-pyrazol-4-yl)-benzylamino]-pyrimidin-4-yl}-imidazo[1,2-a]pyridin-7-yloxy)-propan-1-ol]: the pIC50 in series [1] is 7.16; in series [3] it was 8.12. In series [2], the efflux ratio at 2 h, 1 μM is under 15.
